# Target: T1, Tyrosine-protein phosphatase non-receptor type 1 [1-298] (Homo sapiens, UniProt P18031)
# T1 construct: 1-298
# T1 sequence (P18031 whole entry): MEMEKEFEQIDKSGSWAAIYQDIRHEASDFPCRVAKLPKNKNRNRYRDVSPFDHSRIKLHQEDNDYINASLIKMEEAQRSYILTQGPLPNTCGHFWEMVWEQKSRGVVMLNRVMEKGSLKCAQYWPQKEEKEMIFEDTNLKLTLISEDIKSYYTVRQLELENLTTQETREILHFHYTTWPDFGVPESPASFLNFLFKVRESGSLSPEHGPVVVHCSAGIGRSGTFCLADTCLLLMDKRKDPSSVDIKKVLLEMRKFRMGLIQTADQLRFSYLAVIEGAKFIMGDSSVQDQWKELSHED
# Assay: Enzymatic Assay
# Details: 25 °C
# Procedure: (§1) The enzymatic assay was carried out at room temperature in 96-well plates. […] All the assays were carried out in duplicate or triplicate and the average results are presented. Ki is derived from IC50 based on competitive inhibition Ki = IC50 x Km/ (Km + [substrate]).
row,Compound,Ki
1,"O=C(O)COc1c(C(=O)O)sc2c1sc1cc(Cl)ccc12 [5-(carboxymethoxy)-10-chloro-3,7-dithiatricyclo[6.4.0.0^{2,6}]dodeca-1(8),2(6),4,9,11-pentaene-4-carboxylic acid]",3.5 µM
2,"O=C(O)COc1c(C(=O)O)sc2c1sc1c(NCC3CCCCC3)cccc12 [5-(carboxymethoxy)-9-[(cyclohexylmethyl)amino]-3,7-dithiatricyclo[6.4.0.0^{2,6}]dodeca-1(8),2(6),4,9,11-pentaene-4-carboxylic acid]",0.92 µM
3,"CCS(=O)(=O)N1CCC(Nc2ccc3c(c2)sc2c(OCC(=O)O)c(C(=O)O)sc23)CC1 [5-(carboxymethoxy)-10-{[1-(ethanesulfonyl)piperidin-4-yl]amino}-3,7-dithiatricyclo[6.4.0.0^{2,6}]dodeca-1(8),2(6),4,9,11-pentaene-4-carboxylic acid]",1.6 µM
4,"O=C(O)COc1c(C(=O)O)sc2c1sc1cc(NC3CCCCC3)ccc12 [5-(carboxymethoxy)-10-(cyclohexylamino)-3,7-dithiatricyclo[6.4.0.0^{2,6}]dodeca-1(8),2(6),4,9,11-pentaene-4-carboxylic acid]",0.74 µM
5,"O=C(O)COc1c(C(=O)O)sc2c1sc1c(Cl)cccc12 [5-(carboxymethoxy)-9-chloro-3,7-dithiatricyclo[6.4.0.0^{2,6}]dodeca-1(8),2(6),4,9,11-pentaene-4-carboxylic acid]",10 µM
6,"O=C(O)COc1c(C(=O)O)sc2c1ccc1ccccc12 [5-(carboxymethoxy)-3-thiatricyclo[7.4.0.0^{2,6}]trideca-1(9),2(6),4,7,10,12-hexaene-4-carboxylic acid]",11 µM
7,"O=C(O)COc1c(C(=O)O)sc2c1sc1cc(NCC3CCCCC3)ccc12 [5-(carboxymethoxy)-10-[(cyclohexylmethyl)amino]-3,7-dithiatricyclo[6.4.0.0^{2,6}]dodeca-1(8),2(6),4,9,11-pentaene-4-carboxylic acid]",0.68 µM
8,"O=C(O)COc1c(C(=O)O)sc2c1sc1cc(NC3CCOCC3)ccc12 [5-(carboxymethoxy)-10-(oxan-4-ylamino)-3,7-dithiatricyclo[6.4.0.0^{2,6}]dodeca-1(8),2(6),4,9,11-pentaene-4-carboxylic acid]",2.4 µM
9,"O=C(O)COc1c(C(=O)O)sc2c1sc1c(NC3CCCCC3)cccc12 [5-(carboxymethoxy)-9-(cyclohexylamino)-3,7-dithiatricyclo[6.4.0.0^{2,6}]dodeca-1(8),2(6),4,9,11-pentaene-4-carboxylic acid]",1.7 µM

# Further lines, results first:
row,Ki,Compound
1,9.2 µM,"O=C(O)COc1c(C(=O)O)sc2c1sc1ccccc12 [5-(carboxymethoxy)-3,7-dithiatricyclo[6.4.0.0^{2,6}]dodeca-1(8),2(6),4,9,11-pentaene-4-carboxylic acid]"
2,119 µM,O=C(O)COc1c(C(=O)O)sc2c(Cl)cccc12 [3-(carboxymethoxy)-7-chloro-1-benzothiophene-2-carboxylic acid]
3,37 µM,Cc1cccc2c(OCC(=O)O)c(C(=O)O)sc12 [3-(carboxymethoxy)-7-methyl-1-benzothiophene-2-carboxylic acid]
4,> 500 µM,"O=C(O)COc1c(C(=O)O)sc2c1cnc1ccccc12 [5-(carboxymethoxy)-3-thia-8-azatricyclo[7.4.0.0^{2,6}]trideca-1(9),2(6),4,7,10,12-hexaene-4-carboxylic acid]"

# Same assay, conditions: pH 7; 22 °C
row,Compound,Ki
1,O=C(O)COc1c(C(=O)O)sc2cc(C(=O)Nc3ccn(-c4ccccc4)n3)ccc12 [3-(carboxymethoxy)-6-[(1-phenyl-1H-pyrazol-3-yl)carbamoyl]-1-benzothiophene-2-carboxylic acid],20 µM
2,O=C(O)COc1c(C(=O)O)sc2cc(-c3ccc(O)cc3)ccc12 [3-(carboxymethoxy)-6-(4-hydroxyphenyl)-1-benzothiophene-2-carboxylic acid],26 µM
3,O=C(O)COc1c(C(=O)O)sc2cc(-c3cccs3)ccc12 [3-(carboxymethoxy)-6-(thiophen-2-yl)-1-benzothiophene-2-carboxylic acid],30 µM
4,O=C(O)c1sc2cc(Cl)ccc2c1OC(F)C(=O)O (centres undefined) [3-[carboxy(fluoro)methoxy]-6-chloro-1-benzothiophene-2-carboxylic acid],52 µM
5,CC(Oc1c(C(=O)O)sc2cc(Cl)ccc12)C(=O)O (centres undefined) [3-(1-carboxyethoxy)-6-chloro-1-benzothiophene-2-carboxylic acid],> 2500 µM
6,O=C(O)COc1cc2ccccc2cc1C(=O)O [3-(carboxymethoxy)naphthalene-2-carboxylic acid],860 µM
7,O=C(O)COc1c(C(=O)O)sc2cc(-c3ccccc3)ccc12 [3-(carboxymethoxy)-6-phenyl-1-benzothiophene-2-carboxylic acid],128 µM

# Continued, values first:
row,Ki,Compound
1,61 µM,O=C(O)COc1c(C(=O)O)sc2cc(Cl)ccc12 [3-(carboxymethoxy)-6-chloro-1-benzothiophene-2-carboxylic acid]
2,280 µM,"O=C(O)COc1c(C(=O)O)sc2ccsc12 [3-(carboxymethoxy)thieno[3,2-b]thiophene-2-carboxylic acid]"
3,160 µM,O=C(O)COc1c(C(=O)O)sc2ccccc12 [3-(carboxymethoxy)-1-benzothiophene-2-carboxylic acid]
4,> 2500 µM,"Cc1cc2sc(C(=O)O)c(OCC(=O)O)c2cn1 [3-(carboxymethoxy)-6-methylthieno[3,2-c]pyridine-2-carboxylic acid]"
5,> 2500 µM,"O=C(O)COc1c(C(=O)O)oc2ncccc12 [3-(carboxymethoxy)furo[2,3-b]pyridine-2-carboxylic acid]"
6,42 µM,O=C(O)COc1c(C(=O)O)sc2cc(Br)ccc12 [6-bromo-3-(carboxymethoxy)-1-benzothiophene-2-carboxylic acid]
7,77 µM,"O=C(O)COc1c(C(=O)O)sc2cccnc12 [3-(carboxymethoxy)thieno[3,2-b]pyridine-2-carboxylic acid]"

# Target: T2, Tyrosine-protein phosphatase non-receptor type 2 (Homo sapiens, UniProt P17706)
# T2 sequence (P17706 whole entry): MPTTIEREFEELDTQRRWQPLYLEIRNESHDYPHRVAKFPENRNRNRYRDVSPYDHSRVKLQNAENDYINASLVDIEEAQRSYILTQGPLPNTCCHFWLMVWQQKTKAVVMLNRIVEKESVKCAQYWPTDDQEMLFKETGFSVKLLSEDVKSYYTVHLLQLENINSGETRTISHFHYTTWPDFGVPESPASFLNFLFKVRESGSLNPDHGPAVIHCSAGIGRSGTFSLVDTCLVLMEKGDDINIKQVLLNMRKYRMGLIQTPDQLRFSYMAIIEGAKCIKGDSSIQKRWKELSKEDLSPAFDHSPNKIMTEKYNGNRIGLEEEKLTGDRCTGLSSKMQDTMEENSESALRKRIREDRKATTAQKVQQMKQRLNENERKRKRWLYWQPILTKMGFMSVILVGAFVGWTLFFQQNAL
# Assay: Enzymatic Assay
# Details: 25 °C
# Procedure: as §1
row,Ki,Compound
1,0.38 µM,"O=C(O)COc1c(C(=O)O)sc2c1sc1cc(NC3CCN(S(=O)(=O)Cc4ccccc4)CC3)ccc12 [5-(carboxymethoxy)-10-{[1-(phenylmethane)sulfonylpiperidin-4-yl]amino}-3,7-dithiatricyclo[6.4.0.0^{2,6}]dodeca-1(8),2(6),4,9,11-pentaene-4-carboxylic acid]"
2,4.1 µM,"O=C(O)COc1c(C(=O)O)sc2c1sc1ccccc12 [5-(carboxymethoxy)-3,7-dithiatricyclo[6.4.0.0^{2,6}]dodeca-1(8),2(6),4,9,11-pentaene-4-carboxylic acid]"

# — BindingDB's records for doi:10.1016/j.bmc.2005.11.005 (Wyeth Research, 2006)
